Molecular target: Carbonic anhydrase 9 (Homo sapiens, UniProt Q16790)
Experiment: Inhibition of human carbonic anhydrase 9 after 15 mins by stopped flow CO2 hydration assay

Row | SMILES | Ki
1 | Cc1cc(C)n(-c2ccncc2S(N)(=O)=O)n1 | 24.8 nM
2 | NS(=O)(=O)c1cnccc1N1CCN(c2ccc(F)cc2)CC1 | 239 nM

Reference: ChEMBL document CHEMBL2434896, “Carbonic anhydrase inhibitors. Synthesis of heterocyclic 4-substituted pyridine-3-sulfonamide derivatives and their inhibition of the human cytosolic isozymes I and II and transmembrane tumor-associated isozymes IX and XII” (Eur J Med Chem, 2013)
